Here are results for 3 molecules from publication PMC6989399, “A drug library screen identifies Carbenoxolone as novel FOXO inhibitor that overcomes FOXO3-mediated chemoprotection in high-stage neuroblastoma” (Oncogene, 2019).

In one data set the target is FOXO6-DBD (Homo sapiens, UniProt A8MYZ6). The data set can be described thus: competitive fluorescence polarization (displacement of IRE-FAM oligonucleotide), […] CBX. The format is binding.
Data set [1] deals with FOXO3-DBD (Homo sapiens, UniProt O43524). Description: competitive fluorescence polarization (displacement of IRE-FAM oligonucleotide), confirmed by FAM-EMSA. It counts as binding. (In general: Mobility shift assays separate free from complexed probe on a gel.)
Sequence of FOXO3-DBD (Homo sapiens, UniProt O43524) (O43524 156-269): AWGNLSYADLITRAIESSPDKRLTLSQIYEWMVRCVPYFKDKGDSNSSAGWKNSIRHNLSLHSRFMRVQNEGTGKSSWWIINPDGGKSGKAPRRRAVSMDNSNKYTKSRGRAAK
The target of another data set is FOXO4-DBD (Homo sapiens, UniProt P98177). The data set can be described thus: competitive fluorescence polarization (displacement of IRE-FAM oligonucleotide), […] CBX. The format is binding. (Polarisation of emitted light reports the rotation of a fluorescent probe.)
Sequence of FOXO4-DBD (P98177 82-207): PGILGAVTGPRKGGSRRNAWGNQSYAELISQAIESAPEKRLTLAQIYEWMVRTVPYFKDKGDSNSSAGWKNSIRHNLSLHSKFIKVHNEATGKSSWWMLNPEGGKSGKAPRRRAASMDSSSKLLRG
The target in data set [2] is T1, FOXO3-DBD (Homo sapiens, UniProt O43524 156-269). Description: fluorescence polarization; 5 nM IRE-FAM, 1-350 nM protein; FPA: 200 mM Tris pH 7.5, 100 mM NaCl, 1 mM EDTA (BSA-precoated plates), 30 min RT (15 C, uncoated for FOXO1/3/4/6 comparison); FAM-EMSA: 20 mM Tris pH 7.5, 100. Particulars: protein: recombinant; tags: N-terminal GST; His (GST-His-purified); blunt.
T1 sequence (O43524 156-269): as the sequence (O43524 156-269) above

Data set [3] deals with T1, FOXO3-DBD. The data set can be described thus: EMSA; 1 uM protein, 100 nM DNA; FPA: 200 mM Tris pH 7.5, 100 mM NaCl, 1 mM EDTA (BSA-precoated plates), 30 min RT (15 C, uncoated for FOXO1/3/4/6 comparison); FAM-EMSA: 20 mM Tris pH 7.5, 100. Particulars: protein: recombinant; tags: N-terminal GST; His (GST-His-purified); blunt.

Sequence of FOXO6-DBD (A8MYZ6 87-200): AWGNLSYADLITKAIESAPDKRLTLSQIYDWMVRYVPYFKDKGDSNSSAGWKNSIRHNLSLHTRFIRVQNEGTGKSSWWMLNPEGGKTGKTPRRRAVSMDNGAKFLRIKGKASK

For `CC1(C)[C@@H](OC(=O)CCC(=O)O)CC[C@]2(C)[C@H]3C(=O)C=C4[C@@H]5C[C@@](C)(C(=O)O)CC[C@]5(C)CC[C@@]4(C)[C@]3(C)CC[C@@H]12` [CBX, Carbenoxolone], the “competitive fluorescence polarization (displacement of IRE-FAM oligonucleotide),” value is on record as “CBX binds in addition to the FOXO3-DBD, also the FOXO1-DBD, the FOXO4-DBD, as well as the FOXO6-DBD” at FOXO6-DBD and “CBX binds in addition to the FOXO3-DBD, also the FOXO1-DBD, the FOXO4-DBD, as well as the FOXO6-DBD” on FOXO4-DBD. The molecule further displayed a Ki at FOXO3-DBD [1] of 19 µM.

B1: IRE-FAM (dsDNA)
DNA 1: CTATCAAAACAACGC
DNA 2: GCGTTGTTTTGATAG
As for B1, the Kd in the data set with FOXO3-DBD [2] was 0.0534 µM.

B2: FoxP3-FAM (dsDNA)
DNA 1: AGCAAAGTTGTTTTTGATAATG
DNA 2: CATTATCAAAAACAACTTTGCT
With B2, in the data set with FOXO3-DBD [3], the binding result is on record as “binds”.

For orientation: Ki means a dissociation constant, usually derived from enzyme kinetics or from competition with a known ligand. A low value points to tighter binding. The term Kd denotes the concentration at which binding is half-saturated.
